How the values were obtained:
NLRP3 inflammasome [1] = molecular target: T1, NLRP3 inflammasome (Homo sapiens, UniProt Q96P20); test: NLRP3 inflammasome activation assay in PBMCs, IL-1β release (ELISA / HTRF); assay type: cell-based; parameters: were freshly isolated from human peripheral blood from healthy donors; StemCells Technologies; host or cells: primary human PBMCs, LPS-primed, nigericin-stimulated; settings: LPS primed
Experimental: Some of the following assays were used to determine the inhibitory activity of the compounds on the NLRP3 inflammasome using a common inflammasome activation stimuli—nigericin.
Human peripheral blood mononuclear cells (PBMCs), consisting of lymphocytes (T, B and NK cells), monocytes and dendritic cells, were freshly isolated from human peripheral blood from healthy donors. Cells were obtained through an IRB approved donor program by iXCells Biotechnologies where all the donors were tested for bacterial and viral infections. Cells were purified from peripheral blood using ficoll gradient centrifugation.
Fresh or cryopreserved PMBCs were seeded in V-bottom 96-well plate at 0.5-1×10^5 cells per well and incubated overnight at 37° C. with 5% CO2 in RPMI 1640 medium with GlutaMAX supplement, 4.5 g/L D-glucose, 10% Fetal Bovine Serum (FBS), […] Sodium Pyruvate, 1% Penicillin/Streptomycin, 10 mM HEPES and 0.05 mM of β-mercaptoethanol. Freshly isolated or cryopreserved KCs cells were seeded in flat-bottom 96-well plates at 0.6-1.5×10^5 cells/well and incubated overnight at 37° C. 5% CO2 in RPMI 1640 Medium with GlutaMAX supplement, FBS, 1% Penicillin/Streptomycin and 10 mM HEPES. The following day, the cells were primed with 100 ng/mL of lipopolysaccharides (LPS; Sigma Aldrich) in FBS-free RPMI 1640 for 3 h. After the priming step, the media was removed and PBMCs were pre-incubated with serial concentrations of test compounds (0.00017-10 uM) or vehicle (DMSO) for 30 min in FBS-free media prior to addition of the NLRP3 activator. Cells were then stimulated with 10 uM Nigericin (Sigma Aldrich; InvivoGen) for 1.5 h. Plates were centrifuged at 1,500 rpm for 3 minutes to pellet cells and supernatant was transferred into new plates for subsequent experiments.
For ELISA assays cells were seeded into 96-well plates. Post study, supernatants were removed and the levels of mature IL-1β, IL18 and TNFα (Quantikine ELISA, R&D systems) were measured in cell conditioned media by ELISA according to manufacturer's instructions.
Human frozen PBMCs were purchased from StemCells Technologies. Cells were rapidly thawed in 37° C. water bath and resuspended in fresh assay media consisting of RPMI 1640 Medium containing 1% sodium pyruvate, 10 mM HEPES, 2.5 g/L glucose and 55 μM 2-Mercaptoethanol. Cell density was adjusted to 8.1×10^5 cells/mL. Cells were primed by adding lipopolysaccharide (Invivogen Ultrapure lipopolysaccharide from E. coli, tlrl-3pelps) at a final concentration of 100 ng/mL in cell suspension. 37 μL of cell suspension with LPS was seeded per well of a 384 well plate and incubated for 3 hours at 37° C. and 5% CO2. After priming, PBMCs were preincubated with serially diluted test compounds with starting concentration of 40 μM followed by 2-fold dilution for a 20-point curve or vehicle (DMSO) for 30 min in assay media at 37° C. and 5% CO2. Cells were then stimulated with 10 μM nigericin (Invivogen, tlrl-nig-5) for 90 min at 37° C. and 5% CO2 to activate NLRP3 dependent inflammasome pathway and IL-1β release in cell culture supernatant. Cells were centrifuged at 1200 RPM for 1 min and 40 μL of supernatant was transferred into fresh plates and stored at −80° C. until IL-1β analysis.
16 μL of supernatant was added to white 384 well HTRF plates, followed by addition of 4 μL of HTRF cocktail in each well. Plates were quickly centrifuged, sealed and incubated overnight at room temperature. Next day, HTRF signal was read on a Pherastar and ratio of 665/620 was calculated based on manufacturer's protocol to obtain concentration of IL-1β in cell culture supernatant.

NLRP3 inflammasome [2] = molecular target: T1, NLRP3 inflammasome; test: THP-1 ASC-GFP speck assay; assay type: cell-based; parameters: host or cells: THP-1 ASC-GFP cells, PMA-differentiated, LPS-primed, nigericin-stimulated; settings: THP-1 ASC-GFP cells, PMA differentiated, LPS primed, 10 μM nigericin; read-out: THP1 ASC Speck IC50
Experimental: THP-1 ASC-GFP cell line was purchased from Invivogen, San Diego, for inflammasome activation assay. THP-1 ASC-GFP cells stably express a 37.6 kDa ASC::GFP fusion protein that enables monitoring of spec formation by microscopy after activation of NLRP3 dependent inflammasome pathway. Cells were maintained at a density of 600,000 cells/mL in growth media consisting of RPMI 1640, 2 mM L-glutamine, 25 mM HEPES and 10% heat inactivated fetal bovine serum at 37° C. and 5% CO2. Cells were passaged every 3-4 days and used for assays for up to 20 passages.
THP-1 ASC-GFP cells were collected by centrifuging cells at 800 RPM for 5 minutes. Cell culture supernatant was removed and cells were re-suspended in fresh media at density of 1×10^6 cells/mL in assay media consisting of RPMI 1640, 2 mM L-glutamine, 25 mM HEPES and 10% heat inactivated fetal bovine serum. Phorbol 12-myristate 13-acetate (PMA) (Invivogen, tlrl-pma) was added to the cell suspension at a final concentration of 500 ng/ml and mixed thoroughly. 40,000 cells were added per well of a 384 well plate and differentiated into macrophages overnight at 37° C. and 5% CO2. Cells were primed with 1 μg/mL of lipopolysaccharide (Invivogen Ultrapure lipopolysaccharide from E. coli, tlrl-3pelps) in assay media for 3 hours at 37° C. and 5% CO2. After priming, media was removed and THP-1 ASC-GFP cells were preincubated with serially diluted test compounds with starting concentration of 40 μM followed by 2-fold dilution for a 20-point curve or vehicle (DMSO) for 30 min in assay media at 37° C. and 5% CO2. Cells were then stimulated with 10 μM nigericin (Invivogen, tlrl-nig-5) for 90 min at 37° C. and 5% CO2 to activate NLRP3 dependent inflammasome pathway and spec formation. After stimulation, cells were fixed with 4.8% paraformaldehyde (Electron Microscopy Sciences #15710-S) and incubated at room temperature for 15 min. Cells were then washed 3-times with 100 μL of phosphate buffered saline and permeabilized in the presence of premeablization/block buffer for 20 min at room temperature. Cells were then washed 3-times with 100 μL phosphate buffered saline and incubated for 1 hr at room temperature in the presence of hoechst. After staining with Hoechst, cells were washed 3-times with 100 μL phosphate buffered saline and imaged for ASC spec formation.
THP-1 ASC-GFP cells were imaged in 488 and Hoechst channels. Hoechst channel was used for cell count and 488 channel was used to identify number of GFP ASC specks in imaged fields. Percentage of cells with a spec was calculated by dividing the number of GFP positive spots by total number of cells.

[3] = 10 μM nigericin, read-out: PBMC IL-1β IC50
[4] = 10 uM nigericin, read-out: PBMC IL-1 β IC50

T1 sequence (Q96P20 whole entry): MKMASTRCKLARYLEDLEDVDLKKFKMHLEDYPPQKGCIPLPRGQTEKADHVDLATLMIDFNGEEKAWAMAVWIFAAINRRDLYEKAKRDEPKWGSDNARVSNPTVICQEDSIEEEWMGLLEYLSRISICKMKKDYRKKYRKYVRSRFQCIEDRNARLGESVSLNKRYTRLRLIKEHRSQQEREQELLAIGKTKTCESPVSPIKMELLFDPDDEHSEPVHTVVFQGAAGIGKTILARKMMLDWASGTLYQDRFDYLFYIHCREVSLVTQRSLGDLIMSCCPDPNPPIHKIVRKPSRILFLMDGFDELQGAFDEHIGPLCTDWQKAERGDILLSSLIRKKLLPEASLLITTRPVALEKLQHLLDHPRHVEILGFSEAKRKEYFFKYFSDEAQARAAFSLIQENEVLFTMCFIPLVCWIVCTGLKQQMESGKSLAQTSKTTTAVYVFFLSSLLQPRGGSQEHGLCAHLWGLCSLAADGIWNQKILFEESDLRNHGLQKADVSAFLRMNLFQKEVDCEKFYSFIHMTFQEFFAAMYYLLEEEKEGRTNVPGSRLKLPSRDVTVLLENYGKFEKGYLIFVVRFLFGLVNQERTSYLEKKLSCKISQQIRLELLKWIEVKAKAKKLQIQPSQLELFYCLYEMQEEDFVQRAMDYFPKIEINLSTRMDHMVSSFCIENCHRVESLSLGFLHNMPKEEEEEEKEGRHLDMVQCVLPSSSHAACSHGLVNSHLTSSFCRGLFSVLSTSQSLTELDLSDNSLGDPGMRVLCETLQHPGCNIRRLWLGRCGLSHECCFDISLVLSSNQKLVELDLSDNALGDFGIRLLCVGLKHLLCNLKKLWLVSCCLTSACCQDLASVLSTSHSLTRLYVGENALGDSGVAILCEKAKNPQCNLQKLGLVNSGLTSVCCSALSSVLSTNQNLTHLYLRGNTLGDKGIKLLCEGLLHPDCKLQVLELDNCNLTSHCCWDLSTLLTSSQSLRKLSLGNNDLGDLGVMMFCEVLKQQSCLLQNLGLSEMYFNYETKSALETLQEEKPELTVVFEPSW

SMILES | IC50 (NLRP3 inflammasome [1]; [3]) [nM] | IC50 (NLRP3 inflammasome [2]) [nM] | IC50 (NLRP3 inflammasome [1]; [4]) [nM]
NS(=O)(=NC(=O)Nc1c2c(cc3c1CCC3)CCC2)c1cnn2c1CCCC2 (racemic) [Example 60, N′-((1,2,3,5,6,7-hexahydro-s-indacen-4-yl)carbamoyl)-4,5,6,7-tetrahydropyrazolo[1,5-a]pyridine-3-sulfonimidamide] | 3640 |  | 
COC1CN(C2COc3c(S(N)(=O)=NC(=O)Nc4c5c(c(F)c6c4CCC6)CCC5)cnn3C2)C1 (single isomer, unassigned) [Example 42] | 5 | 18 | 
COC1CN(C2COc3c(S(N)(=O)=NC(=O)Nc4c5c(c(F)c6c4CCC6)CCC5)cnn3C2)C1 (single isomer, unassigned) [Example 43] | 430 | 1900 | 
CN(C)[C@@H]1COc2c([S@](N)(=O)=NC(=O)Nc3c4c(c(F)c5c3CCC5)CCC4)cnn2C1 (single isomer, unassigned) [Example 44] | 86 | 450 | 
CN(C)[C@@H]1COc2c([S@@](N)(=O)=NC(=O)Nc3c4c(c(F)c5c3CCC5)CCC4)cnn2C1 (single isomer, unassigned) [Example 45] | 0.7 | 11 | 
NS(=O)(=NC(=O)Nc1c2c(c(F)c3c1CCC3)CCC2)c1cnn2c1OCC(NCCF)C2 (single isomer, unassigned) [Example 46] | 7 | 81 | 
NS(=O)(=NC(=O)Nc1c2c(c(F)c3c1CCC3)CCC2)c1cnn2c1OC[C@@H](NCCF)C2 (single isomer, unassigned) [Example 47] | 330 | 1700 | 
COc1cc(C(C)C)c(NC(=O)N=S(N)(=O)c2cnn3c2OCC(N2CC(OC)C2)C3)c(C(C)C)n1 (single isomer, unassigned) [Example 48] | > 10000 |  | 
COc1cc(C(C)C)c(NC(=O)N=S(N)(=O)c2cnn3c2OC[C@@H](N2CC(OC)C2)C3)c(C(C)C)n1 (single isomer, unassigned) [Example 49] | 490 | 400 | 
CNC1COc2c(S(N)(=O)=NC(=O)Nc3c(C(C)C)cc(OC)nc3C(C)C)cnn2C1 (single isomer, unassigned) [Example 50] | 200 | 430 | 
CNC1COc2c(S(N)(=O)=NC(=O)Nc3c(C(C)C)cc(OC)nc3C(C)C)cnn2C1 (single isomer, unassigned) [Example 51] | > 10000 | 17000 | 
COc1cc(C(C)C)c(NC(=O)N=S(N)(=O)c2cnn3c2OCC(OC)C3)c(C(C)C)n1 (single isomer, unassigned) [Example 52] | 15100 | > 20000 | 
COc1cc(C(C)C)c(NC(=O)N=S(N)(=O)c2cnn3c2OCC(OC)C3)c(C(C)C)n1 (single isomer, unassigned) [Example 53] | 470 | 1200 | 
COCCNC1COc2c(S(N)(=O)=NC(=O)Nc3c4c(cc5c3CCC5)CCC4)cnn2C1 (single isomer, unassigned) [Example 54] | 330 | 360 | 
COCCNC1COc2c(S(N)(=O)=NC(=O)Nc3c4c(cc5c3CCC5)CCC4)cnn2C1 (single isomer, unassigned) [Example 55] | > 10000 | 7200 | 
CNCCOC1COc2c(S(N)(=O)=NC(=O)Nc3c4c(cc5c3CCC5)CCC4)cnn2C1 (single isomer, unassigned) [Example 56] | > 10000 | > 20000 | 
CNCCO[C@@H]1COc2c(S(N)(=O)=NC(=O)Nc3c4c(cc5c3CCC5)CCC4)cnn2C1 (single isomer, unassigned) [Example 57] | 1670 |  | 
NC1COc2c(S(N)(=O)=NC(=O)Nc3c4c(cc5c3CCC5)CCC4)cnn2C1 (single isomer, unassigned) [Example 58] | > 10000 | 5500 | 
CC1CCOc2c(S(N)(=O)=NC(=O)Nc3c4c(cc5c3CCC5)CCC4)cnn2C1 (single isomer, unassigned) [Example 64] | > 20000 | > 20000 | 
CC(=O)NS(=O)(=NC(=O)Nc1c2c(c(F)c3c1CCC3)CCC2)c1cnn2c1OCCC2 (single isomer, unassigned) [Example 95] | 2230 |  | 
COC1CN([C@@H]2COc3c([S@@](=O)(=NC(=O)Nc4c5c(c(F)c6c4CCC6)CCC5)NC#N)cnn3C2)C1 (stereo in doubt) [Example 63, (R,6S)—N-cyano-N′-((8-fluoro-1,2,3,5,6,7-hexahydro-s-indacen-4-yl)carbamoyl)-6-(3-methoxyazetidin-1-yl)-6,7-dihydro-5H-pyrazolo[5,1-b][1,3]oxazine-3-sulfonimidamide, ammonia] |  | 140 | 
Cn1ccc(S(=O)(=NC(=O)Nc2c3c(cc4c2CCC4)CCC3)NCc2ccccc2)n1 (centres unmarked) [Example 11, N′-benzyl-N-((1,2,3,5,6,7-hexahydro-s-indacen-4-yl)carbamoyl)-1-methyl-1H-pyrazole-3-sulfonimidamide] | > 10000 |  | 
CN(C)[C@@H]1COc2c([S@@](=O)(=NC(=O)Nc3c4c(c(F)c5c3CCC5)CCC4)NC#N)cnn2C1 [Example 104, (R,6S)—N-cyano-6-(dimethylamino)-N′-((8-fluoro-1,2,3,5,6,7-hexahydro-s-indacen-4-yl)carbamoyl)-6,7-dihydro-5H-pyrazolo[5,1-b][1,3]oxazine-3-sulfonimidamide] |  | 320 | 
Cn1ccc(S(=O)(=NC(=O)Nc2c3c(cc4c2CCC4)CCC3)NCc2ccccc2)n1 (centres unmarked) [drawing 659] |  |  | > 10000
CN[C@@H]1COc2c(S(=N)(=O)NC(=O)Nc3c4c(cc5c3CCC5)CCC4)cnn2C1 (some centres unmarked) [drawing 673] |  |  | 100 to 1000

Source: US12234245B2, “Sulfonimidamide compounds as inhibitors of interleukin-1 activity” (Genentech, Inc., priority 2018, dated 2025)
